Laboratory results reported in patent US10196390B2, “TYK2 inhibitors and uses thereof” (Nimbus Lakshmi, Inc., priority 2014, dated 2019).
pKi: −log10 of the molar value.

Legend:
TYK2 = TYK2 (Homo sapiens (Human), UniProt P29597); assay: Tyk2 activity inhibition assay (radioactive kinase assay / Caliper assay); type: biochemical
Procedure: Peptide substrate, [[…]], (20 μM) is prepared in reaction buffer (20 mM Hepes pH 7.5, 10 mM MgCl2, 1 mM EGTA, 0.02% Brij35, 0.02 mg/mL BSA, […], 2 mM DTT, 1% DMSO. TYK2 (Invitrogen) kinase is added, followed by compounds in DMSO. 33PATP is added to initiate the reaction in ATP at 10 μM. Kinase reaction is incubated for 120 min at room temp and reactions are spotted onto P81 ion exchange paper (Whatman #3698-915), and then washed extensively in 0.75% phosphoric acid, prior to reading the radioactivity counts. For JAK2 (Invitrogen) kinase assay the peptide substrate poly[Glu:Tyr](4:1), 0.2 mg/ml is used, in the reaction carried out the same as for TYK2.
(§1) The caliper machine employs an off chip mobility shift assay to detect phosphorylated peptide substrates from kinase assays, using microfluidics technology. The assays are carried out at ATP concentration equivalent to the ATP Km, and at 1 mM ATP. Compounds are serially diluted in DMSO then further diluted in assay buffer (25 mM HEPES, pH 7.5, 0.01% Brij-35, 0.01% Triton, 0.5 mM EGTA). 5 ul of diluted compound was added into wells first, then 10 ul of enzyme mix was added into wells, followed by 10 uL of substrate mix (peptide and ATP in 10 mM MgCl2) to start reaction. Reaction was incubated at 28° C. for 25 min and then added 25 ul stop buffer (100 mM HEPES, 0.015% Brij-35, 50 mM EDTA), followed by reading with Caliper. JAK2 at 1 nM final concentration and TYK2 at 9.75 nM are from Carna, and substrates used are ATP at 20 and 16 uM, respectively. JAK2 assay uses peptide 22 and TYK2 uses peptide 30 (Caliper), each at 3 uM.

JAK2 = JAK2 (Homo sapiens (Human), UniProt O60674); assay: JAK2 activity inhibition assay (radioactive kinase assay / Caliper assay); type: biochemical; conditions: read-out: JAK2 Ki
Procedure: as §1, with “The assays are carried out at ATP concentration equivalent to the ATP Km, and at 1 mM ATP.” left out, “Caliper.” for “Caliper. JAK2 at 1 nM final concentration and TYK2 at 9.75 nM are from Carna, and substrates used are ATP at 20 and 16 uM, respectively. JAK2 assay uses peptide 22 and TYK2 uses peptide 30 (Caliper), each at 3 uM.”

Sequence of JAK2 (O60674 whole entry): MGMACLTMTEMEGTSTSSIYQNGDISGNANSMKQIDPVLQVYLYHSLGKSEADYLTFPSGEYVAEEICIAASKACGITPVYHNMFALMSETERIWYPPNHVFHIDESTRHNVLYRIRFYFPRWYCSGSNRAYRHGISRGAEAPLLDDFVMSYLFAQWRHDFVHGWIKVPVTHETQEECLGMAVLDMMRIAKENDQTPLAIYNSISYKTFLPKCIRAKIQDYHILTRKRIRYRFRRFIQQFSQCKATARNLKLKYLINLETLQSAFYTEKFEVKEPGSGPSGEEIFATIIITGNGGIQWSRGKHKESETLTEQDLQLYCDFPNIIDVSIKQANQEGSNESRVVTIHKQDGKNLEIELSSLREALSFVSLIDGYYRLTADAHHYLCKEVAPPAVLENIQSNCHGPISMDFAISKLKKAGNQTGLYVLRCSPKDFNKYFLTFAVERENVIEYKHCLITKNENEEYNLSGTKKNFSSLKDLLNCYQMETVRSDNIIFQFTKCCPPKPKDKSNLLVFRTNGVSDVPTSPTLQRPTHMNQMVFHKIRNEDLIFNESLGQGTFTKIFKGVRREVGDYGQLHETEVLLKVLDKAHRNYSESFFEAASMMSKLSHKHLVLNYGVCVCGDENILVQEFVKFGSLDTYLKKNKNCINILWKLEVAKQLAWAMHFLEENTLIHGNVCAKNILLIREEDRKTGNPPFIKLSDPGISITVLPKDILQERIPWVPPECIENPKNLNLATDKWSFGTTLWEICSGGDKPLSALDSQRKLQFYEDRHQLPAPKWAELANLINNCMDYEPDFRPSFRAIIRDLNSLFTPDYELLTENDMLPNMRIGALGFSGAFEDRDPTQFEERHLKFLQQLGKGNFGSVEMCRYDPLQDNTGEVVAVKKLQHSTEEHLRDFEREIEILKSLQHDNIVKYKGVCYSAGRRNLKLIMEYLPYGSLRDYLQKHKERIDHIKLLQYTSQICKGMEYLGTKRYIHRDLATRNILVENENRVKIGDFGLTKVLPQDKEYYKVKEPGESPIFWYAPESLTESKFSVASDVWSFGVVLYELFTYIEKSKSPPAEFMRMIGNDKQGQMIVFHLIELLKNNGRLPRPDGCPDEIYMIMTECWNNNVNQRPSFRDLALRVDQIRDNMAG
Sequence of TYK2 (P29597 whole entry): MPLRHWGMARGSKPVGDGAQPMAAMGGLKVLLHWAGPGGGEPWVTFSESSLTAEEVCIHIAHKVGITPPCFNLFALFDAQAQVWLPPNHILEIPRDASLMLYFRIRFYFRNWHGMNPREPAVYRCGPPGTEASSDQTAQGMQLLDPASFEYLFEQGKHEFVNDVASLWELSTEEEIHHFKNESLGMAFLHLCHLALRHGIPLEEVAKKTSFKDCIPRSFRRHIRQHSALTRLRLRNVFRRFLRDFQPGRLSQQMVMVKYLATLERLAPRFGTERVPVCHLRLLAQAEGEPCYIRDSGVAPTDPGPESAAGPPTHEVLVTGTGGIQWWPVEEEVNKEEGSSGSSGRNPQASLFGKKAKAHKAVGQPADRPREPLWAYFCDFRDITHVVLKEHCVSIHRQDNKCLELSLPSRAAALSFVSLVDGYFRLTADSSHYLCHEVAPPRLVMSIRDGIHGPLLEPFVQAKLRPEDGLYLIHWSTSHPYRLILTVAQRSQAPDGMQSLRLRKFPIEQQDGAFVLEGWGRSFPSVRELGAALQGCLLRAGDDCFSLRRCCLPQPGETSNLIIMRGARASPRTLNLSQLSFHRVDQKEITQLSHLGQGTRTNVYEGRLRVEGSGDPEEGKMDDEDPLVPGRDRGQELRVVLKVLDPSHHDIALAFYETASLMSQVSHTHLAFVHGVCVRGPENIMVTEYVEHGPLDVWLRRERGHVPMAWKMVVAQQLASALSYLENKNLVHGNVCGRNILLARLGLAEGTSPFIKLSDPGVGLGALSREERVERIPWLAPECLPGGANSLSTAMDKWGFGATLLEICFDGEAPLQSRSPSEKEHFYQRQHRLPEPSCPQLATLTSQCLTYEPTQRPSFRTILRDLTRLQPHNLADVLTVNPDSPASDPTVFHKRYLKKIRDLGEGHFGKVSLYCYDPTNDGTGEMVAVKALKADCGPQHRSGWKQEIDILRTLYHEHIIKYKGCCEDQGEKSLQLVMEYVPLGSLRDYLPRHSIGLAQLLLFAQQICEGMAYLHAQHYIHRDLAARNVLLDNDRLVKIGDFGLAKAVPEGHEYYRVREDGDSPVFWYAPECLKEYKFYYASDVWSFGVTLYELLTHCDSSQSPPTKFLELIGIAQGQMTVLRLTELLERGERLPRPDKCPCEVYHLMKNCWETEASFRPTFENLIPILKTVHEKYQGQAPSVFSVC

Row | SMILES | pKi (TYK2) | pKi (JAK2)
1 | CN1CC[C@](C)(c2ccc(Nc3nc(-c4c(F)cccc4F)nc4c3C(=O)NC4)cc2)C1=O [Compound I-152, (R)-2-(2,6-difluorophenyl)-4-((4-(1,3-dimethyl-2-oxopyrrolidin-3-yl)phenyl)amino)-6,7-dihydro-5H-pyrrolo[3,4-d]pyrimidin-5-one] | > 8.00 | 6.00 to 7.00
2 | O=C1NCc2nc(-c3c(F)cccc3F)cc(Nc3ccc(OCCN4CCC4)cn3)c21 [Compound I-134, 4-((5-(2-(azetidin-1-yl)ethoxy)pyridin-2-yl)amino)-2-(2,6-difluorophenyl)-6,7-dihydro-5H-pyrrolo[3,4-b]pyridin-5-one] | > 8.00 | 7.00 to 8.00
3 | O=C(Cc1ccc(Nc2nc(-c3c(F)cccc3F)nc3c2C(=O)NC3)cc1)NCCO [Compound I-79, 2-(4-((2-(2,6-difluorophenyl)-5-oxo-6,7-dihydro-5H-pyrrolo[3,4-d]pyrimidin-4-yl)amino)phenyl)-N-(2-hydroxy-ethyl)acetamide] | > 8.00 | 6.00 to 7.00
4 | C[C@H](O)CNC(=O)Cc1ccc(Nc2nc(-c3c(F)cccc3F)nc3c2C(=O)NC3)cc1 [Compound I-75, (S)-2-(4-((2-(2,6-difluorophenyl)-5-oxo-6,7-dihydro-5H-pyrrolo[3,4-d]pyrimidin-4-yl)amino)phenyl)-N-(2-hydroxy-propyl)acetamide] | > 8.00 | 6.00 to 7.00
5 | N#Cc1cc(Cl)c(-c2nc3c(c(Nc4ccc(CC(=O)O)cc4)n2)C(=O)NC3)c(Cl)c1 [Compound I-9, 2-(4-((2-(2,6-dichloro-4-cyanophenyl)-5-oxo-6,7-dihydro-5H-pyrrolo[3,4-d]pyrimidin-4-yl)amino)phenyl)acetic Acid] | > 8.00 | 6.00 to 7.00
6 | CC1(C)C[C@H](c2ccc(Nc3nc(-c4c(F)cccc4F)nc4c3C(=O)NC4)cc2)C(=O)N1 [Compound I-219, (R)-2-(2,6-difluorophenyl)-4-((4-(5,5-dimethyl-2-oxopyrrolidin-3-yl)phenyl)amino)-6,7-dihydro-5H-pyrrolo[3,4-d]pyrimidin-5-one] | > 8.00 | 7.00 to 8.00
7 | O=C1NC(=O)C(c2ccc(Nc3nc(-c4c(F)cccc4F)nc4c3C(=O)NC4)cc2)S1 (stereo not drawn) [Compound I-192, 5-(4-((2-(2,6-difluorophenyl)-5-oxo-6,7-dihydro-5H-pyrrolo[3,4-d]pyrimidin-4-yl)amino)phenyl)thiazolidine-2,4-dione] | > 8.00 | 6.00 to 7.00
8 | CC(C)(O)CNC(=O)Cc1ccc(Nc2nc(-c3c(F)cccc3F)nc3c2C(=O)NC3)cc1 [Compound I-76, 2-(4-((2-(2,6-difluorophenyl)-5-oxo-6,7-dihydro-5H-pyrrolo[3,4-d]pyrimidin-4-yl)amino)phenyl)-N-(2-hydroxy-2-methylpropyl)acetamide] | > 8.00 | 7.00 to 8.00
9 | O=C1NCc2nc(-c3c(F)cccc3F)nc(Nc3ccc(C4CCN(CCO)C4=O)cc3)c21 (stereo not drawn) [Compound I-149, 2-(2,6-difluorophenyl)-4-((4-(1-(2-hydroxyethyl)-2-oxopyrrolidin-3-yl)phenyl)amino)-6,7-dihydro-5H-pyrrolo[3,4-d]pyrimidin-5-one] | > 8.00 | 6.00 to 7.00
10 | CCNC(=O)[C@H]1C[C@H](Nc2nc(-c3c(F)cccc3F)nc3c2C(=O)NC3)C1 [Compound I-131, (1r,3r)-3-((2-(2,6-difluorophenyl)-5-oxo-6,7-dihydro-5H-pyrrolo[3,4-d]pyrimidin-4-yl)amino)-N-ethylcyclobutane-1-carboxamide] | < 6.00 | < 6.00
11 | CCOC(=O)Cc1ccc(Nc2nc(-c3c(F)cccc3Cl)nc3c2C(=O)NC3)cc1 [Compound I-4, ethyl 2-(4-((2-(2-chloro-6-fluorophenyl)-5-oxo-6,7-dihydro-5H-pyrrolo[3,4-d]pyrimidin-4-yl)amino)phenyl)acetate] | > 8.00 | 6.00 to 7.00
12 | O=C1NCc2nc(-c3c(F)cccc3F)nc(Nc3ccc(C(=O)N4CC5(COC5)C4)cc3)c21 [Compound I-157, 4-((4-(2-oxa-6-azaspiro[3.3]heptane-6-carbonyl)phenyl)amino)-2-(2,6-difluorophenyl)-6,7-dihydro-5H-pyrrolo[3,4-d]pyrimidin-5-one] | 7.00 to 8.00 | 6.00 to 7.00
13 | C[C@@]1(c2ccc(Nc3nc(-c4c(F)cccc4F)nc4c3C(=O)NC4)cc2)NC(=O)NC1=O [Compound I-173, (S)-5-(4-((2-(2,6-difluorophenyl)-5-oxo-6,7-dihydro-5H-pyrrolo[3,4-d]pyrimidin-4-yl)amino)phenyl)-5-methylimidazolidine-2,4-dione] | > 8.00 | 7.00 to 8.00
14 | O=C1NCc2nc(-c3c(F)cccc3F)nc(Nc3ccc(CC(=O)N4CCS(=O)(=O)CC4)cc3)c21 [Compound I-84, 2-(2,6-difluorophenyl)-4-((4-(2-(1,1-dioxidothiomorpholino)-2-oxoethyl)phenyl)amino)-6,7-dihydro-5H-pyrrolo[3,4-d]pyrimidin-5-one] | > 8.00 | 7.00 to 8.00
15 | O=C1NCc2nc(-c3c(F)cccc3F)nc(Nc3ccccc3)c21 [Compound I-179, 2-(2,6-difluorophenyl)-4-(phenylamino)-6,7-dihydro-5H-pyrrolo[3,4-d]pyrimidin-5-one] | 7.00 to 8.00 | 6.00 to 7.00
16 | CN1CC2(C1)CN(c1ccc(Nc3cc(-c4c(F)cccc4F)nc4c3C(=O)NC4)nc1)C2 [Compound I-187, 2-(2,6-difluorophenyl)-4-((5-(6-methyl-2,6-diazaspiro-[3.3]heptan-2-yl)pyridin-2-yl)amino)-6,7-dihydro-5-pyrrolo[3,4-b]pyridin-5-one] | > 8.00 | 7.00 to 8.00
17 | O=C1NCc2nc(-c3c(F)cccc3F)nc(Nc3ccc(CC(=O)N4CCOCC4C(=O)O)cc3)c21 (stereo not drawn) [Compound I-202, 4-(2-(4-((2-(2,6-difluorophenyl)-5-oxo-6,7-dihydro-5H-pyrrolo-[3,4-d]pyrimidin-4-yl)amino)phenyl)acetyl)morpholine-3-carboxylic Acid] | > 8.00 | 6.00 to 7.00
18 | CN1CCN[C@](C)(c2ccc(Nc3cc(-c4c(F)cccc4F)nc4c3C(=O)NC4)nc2)C1=O [Compound I-224, (R)-2-(2,6-difluorophenyl)-4-((5-(2,4-dimethyl-3-oxopiperazin-2-yl)pyridin-2-yl)amino)-6,7-dihydro-5H-pyrrolo[3,4-b]pyridin-5-one] | > 8.00 | > 8.00
19 | Cn1cc(Nc2nc(-c3c(F)cccc3F)nc3c2C(=O)NC3)cn1 [Compound I-160, 2-(2,6-difluorophenyl)-4-((1-methyl-1H-pyrazol-4-yl)amino)-6,7-dihydro-5H-pyrrolo[3,4-d]pyrimidin-5-one] | 7.00 to 8.00 | < 6.00
20 | C[C@@]1(c2ccc(Nc3nc(-c4c(F)cccc4F)nc4c3C(=O)NC4)cc2)CCN(C2CCOCC2)C1=O [Compound I-125, (S)-2-(2,6-difluorophenyl)-4-((4-(3-methyl-2-oxo-1-(tetrahydro-2H-pyran-4-yl)pyrrolidin-3-yl)phenyl)amino)-6,7-dihydro-5H-pyrrolo[3,4-d]pyrimidin-5-one] | > 8.00 | 7.00 to 8.00
21 | COC(=O)Cc1ncc(Nc2nc(-c3c(F)cccc3F)nc3c2C(=O)NC3)cn1 [Compound I-166, methyl 2-(5-((2-(2,6-difluorophenyl)-5-oxo-6,7-dihydro-5H-pyrrolo[3,4-d]pyrimidin-4-yl)amino)pyrimidin-2-yl)acetate] | 6.00 to 7.00 | –
22 | Cc1ccc(Nc2nc(-c3c(F)cccc3F)nc3c2C(=O)NC3)cc1F [Compound I-292, 2-(2,6-difluorophenyl)-4-((3-fluoro-4-methylphenyl)amino)-6,7-dihydro-5H-pyrrolo[3,4-d]pyrimidin-5-one] | 7.00 to 8.00 | –
23 | COc1ccc(Nc2cc(-c3c(F)cccc3F)nc3c2C(=O)N[C@H]3C)nc1 [Compound I-241, (S)-2-(2,6-difluorophenyl)-4-((5-methoxypyridin-2-yl)amino)-7-methyl-6,7-dihydro-5H-pyrrolo[3,4-b]pyridin-5-one] | 6.00 to 7.00 | –
24 | O=C1NCc2nc(-c3c(F)cccc3F)nc(Nc3ccc(C4CCCCC4)cc3)c21 [Compound I-197, 4-((4-cyclohexylphenyl)amino)-2-(2,6-difluorophenyl)-6,7-dihydro-5H-pyrrolo[3,4-d]pyrimidin-5-one] | 6.00 to 7.00 | –
25 | O=C1NCc2nc(-c3c(F)cccc3F)nc(Nc3ccc(S(=O)(=O)C(F)(F)F)cc3)c21 [Compound I-236, 2-(2,6-difluorophenyl)-4-((4-((trifluoromethyl)sulfonyl)phenyl)-amino)-6,7-dihydro-5H-pyrrolo[3,4-d]pyrimidin-5-one] | 7.00 to 8.00 | –
